According to patent publication US20240041840A1 (Areteia Therapeutics, Inc., priority 2020, published 2024):
Like-named read-outs stand apart in the source and are kept apart here.

Key:
[1] = tested on: eosinophil peroxidase (EPX); conditions: worded as embodiment
Method: Eosinophil peroxidase (EPX) is a granule protein uniquely secreted by eosinophils which can be detected and quantified using an enzyme-linked immunosorbent assay (ELISA). EPX is measured from mucosal swabs or sputum samples. […] In embodiments, normal nasal EPX levels are less than about 10 ng/mg of total protein, whereas moderate to severe asthma of the eosinophilic phenotype may be diagnosed as having nasal EPX levels greater than about 10 ng/mg of total protein. […] Normal induced sputum EPX levels may be less than about 200 ng/mL/g recovered sputum, whereas moderate to severe asthma of the eosinophilic phenotype is diagnosed as having induced sputum EPX levels greater than about 200 ng/mL/g recovered sputum.
Evaluation of Efficacy: Blood eosinophil count, changes in pulmonary function (FEV1), Asthma Control Questionnaire (ACQ-6), Asthma Control Questionnaire (ACQ-7), Asthma Quality of Life Questionnaire (AQLQ), exhaled nitric oxide, pharyngeal and nasal eosinophil peroxidase were collected periodically during the study.

[2] = tested on: subjects with eosinophilic chronic rhinosinusitis with nasal polyps; conditions: 150 mg twice daily
Source text: Current asthma medications work in a variety of ways. […] The co-primary endpoints were change in AEC and change in total polyp score (TPS) from baseline to Month 6, with additional clinical and histologic endpoints assessed.

[3] = 12 subjects with a history of asthma

Compound: CCCN[C@@H]1CCc2nc(N)sc2C1 [dexpramipexole, (6R)-2-amino-4,5,6,7-tetrahydro-6-(propylamino) benzothiazole]
- Reduction of the level of nasal EPX ([1]; daily dose of about 75 mg): about 36%
- Reduction of the level of nasal EPX ([1]; daily dose of about 150 mg): about 83%
- Reduction of the level of nasal EPX ([1]; daily dose of about 300 mg): about 89%
- Total polyp score (TPS), mean ([2]; 3 months (Baseline 5.29)): 5.50
- Other indices of chronic rhinosinusitis disease activity (SNOT-22, sinus CT score, Sniffin Sticks olfaction test) ([2]; 6 month trial): not improved
- Total polyp score (TPS), mean ([2]; 6 months (Baseline 5.29)): 5.42
- ACQ6 values [2, 3]: unchanged
- FEV1 values [2, 3]: unchanged
